From article PMC8330742, “New benzothieno[2,3-c]pyridines as non-steroidal CYP17 inhibitors: design, synthesis, anticancer screening, apoptosis induction, and in silico ADME profile studies” (Journal of Enzyme Inhibition and Medicinal Chemistry, 2021)

Columns and labels:
[1] = test system: CCRF-CEM; assay: NCI-60 SRB screen; format: cell-based; details: Homo sapiens, single dose 10^−5 M, read-out: Growth inhibition (%)
[2] = test system: HL-60(TB); assay: NCI-60 SRB screen; format: cell-based, human; details: Homo sapiens; HL-60 (TB); single dose 10^−5 M; read-out: Growth inhibition (%)
[3] = test system: K-562; assay: NCI-60 SRB screen; format: cell-based, human; details: Homo sapiens, K562; K-562; single dose 10^−5 M; read-out: Growth inhibition (%)
[4] = test system: MOLT-4; assay: NCI-60 SRB screen; format: cell-based; details: Homo sapiens; MOLT-4; single dose 10^−5 M; read-out: Growth inhibition (%)
[5] = test system: SR; assay: NCI-60 SRB screen; format: cell-based; details: Homo sapiens, single dose 10^−5 M, read-out: Growth inhibition (%)
[6] = test system: A549/ATCC; assay: NCI-60 SRB screen; format: cell-based, human; details: Homo sapiens, single dose 10^−5 M, read-out: Growth inhibition (%)
[7] = test system: EKVX; assay: NCI-60 SRB screen; format: cell-based, human; details: Homo sapiens, single dose 10^−5 M, read-out: Growth inhibition (%)
[8] = test system: HOP-62; assay: NCI-60 SRB screen; format: cell-based, human; details: Homo sapiens; HOP-62; single dose 10^−5 M; read-out: Growth inhibition (%)
[9] = test system: HOP-92; assay: NCI-60 SRB screen; format: cell-based, human; details: Homo sapiens; HOP-92; single dose 10^−5 M; read-out: Growth inhibition (%)
[10] = test system: NCI-H226; assay: NCI-60 SRB screen; format: cell-based, human; details: Homo sapiens; NCI-H226; single dose 10^−5 M; read-out: Growth inhibition (%)
[11] = test system: NCI-H23; assay: NCI-60 SRB screen; format: cell-based, human; details: Homo sapiens; NCI-H23; single dose 10^−5 M; read-out: Growth inhibition (%)
[12] = test system: NCI-H322M; assay: NCI-60 SRB screen; format: cell-based, human; details: Homo sapiens, single dose 10^−5 M, read-out: Growth inhibition (%)
[13] = test system: NCI-H460; assay: NCI-60 SRB screen; format: cell-based, human; details: Homo sapiens; NCI-H460; single dose 10^−5 M; read-out: Growth inhibition (%)
[14] = test system: NCI-H522; assay: NCI-60 SRB screen; format: cell-based, human; details: Homo sapiens; NCI-H522; single dose 10^−5 M; read-out: Growth inhibition (%)
[15] = test system: COLO 205; assay: NCI-60 SRB screen; format: cell-based, human; details: Homo sapiens; COLO 205; single dose 10^−5 M; read-out: Growth inhibition (%)
[16] = test system: HCT-116; assay: NCI-60 SRB screen; format: cell-based, human; details: Homo sapiens; HCT-116; single dose 10^−5 M; read-out: Growth inhibition (%)
[17] = test system: HCT-15; assay: NCI-60 SRB screen; format: cell-based, human; details: Homo sapiens; HCT-15; single dose 10^−5 M; read-out: Growth inhibition (%)
[18] = test system: HT-29; assay: NCI-60 SRB screen; format: cell-based; details: Homo sapiens; HT-29; single dose 10^−5 M; read-out: Growth inhibition (%)
[19] = test system: KM12; assay: NCI-60 SRB screen; format: cell-based, human; details: Homo sapiens; KM12; single dose 10^−5 M; read-out: Growth inhibition (%)
[20] = test system: SW-620; assay: NCI-60 SRB screen; format: cell-based; details: Homo sapiens; SW-620; single dose 10^−5 M; read-out: Growth inhibition (%)
[21] = test system: SF-268; assay: NCI-60 SRB screen; format: cell-based, human; details: Homo sapiens; SF-268; single dose 10^−5 M; read-out: Growth inhibition (%)
[22] = test system: SF-295; assay: NCI-60 SRB screen; format: cell-based, human; details: Homo sapiens; SF-295; single dose 10^−5 M; read-out: Growth inhibition (%)
[23] = test system: MALME-3M; assay: NCI-60 SRB screen; format: cell-based, human; details: Homo sapiens, single dose 10^−5 M, read-out: Growth inhibition (%)
[24] = test system: M14; assay: NCI-60 SRB screen; format: cell-based, human; details: Homo sapiens; M14; single dose 10^−5 M; read-out: Growth inhibition (%)
[25] = test system: MDA-MB-435; assay: NCI-60 SRB screen; format: cell-based; details: Homo sapiens, MDA-MB-435, read-out: Growth inhibition (%)
[26] = test system: SK-MEL-2; assay: NCI-60 SRB screen; format: cell-based, human; details: Homo sapiens; SK-MEL-2; single dose 10^−5 M; read-out: Growth inhibition (%)
[27] = test system: SK-MEL-28; assay: NCI-60 SRB screen; format: cell-based; details: Homo sapiens; SK-MEL-28; single dose 10^−5 M; read-out: Growth inhibition (%)
[28] = test system: SK-MEL-5; assay: NCI-60 SRB screen; format: cell-based, human; details: Homo sapiens; SK-MEL-5; single dose 10^−5 M; read-out: Growth inhibition (%)
[29] = test system: UACC-257; assay: NCI-60 SRB screen; format: cell-based, human; details: Homo sapiens, UACC-257; UACC-275 (so in the source); single dose 10^−5 M; read-out: Growth inhibition (%)
[30] = test system: UACC-62; assay: NCI-60 SRB screen; format: cell-based, human; details: Homo sapiens; UACC-62; single dose 10^−5 M; read-out: Growth inhibition (%)
[31] = test system: IGROV1; assay: NCI-60 SRB screen; format: cell-based, human; details: Homo sapiens, IGROV-1; IGROV1; single dose 10^−5 M; read-out: Growth inhibition (%)
[32] = test system: OVCAR-3; assay: NCI-60 SRB screen; format: cell-based, human; details: Homo sapiens; OVCAR-3; single dose 10^−5 M; read-out: Growth inhibition (%)
[33] = test system: OVCAR-4; assay: NCI-60 SRB screen; format: cell-based, human; details: Homo sapiens; OVCAR-4; single dose 10^−5 M; read-out: Growth inhibition (%)
[34] = test system: OVCAR-8; assay: NCI-60 SRB screen; format: cell-based, human; details: Homo sapiens; OVCAR-8; single dose 10^−5 M; read-out: Growth inhibition (%)
[35] = test system: NCI/ADR-RES; assay: NCI-60 SRB screen; format: cell-based, human; details: Homo sapiens, single dose 10^−5 M, read-out: Growth inhibition (%)
[36] = test system: SK-OV-3; assay: NCI-60 SRB screen; format: cell-based, human; details: Homo sapiens; SK-OV-3; single dose 10^−5 M; read-out: Growth inhibition (%)
[37] = test system: 786-0; assay: NCI-60 SRB screen; format: cell-based; details: Homo sapiens; 786-0; single dose 10^−5 M; read-out: Growth inhibition (%)
[38] = test system: ACHN; assay: NCI-60 SRB screen; format: cell-based; details: Homo sapiens, single dose 10^−5 M, read-out: Growth inhibition (%)
[39] = test system: CAKI-1; assay: NCI-60 SRB screen; format: cell-based, human; details: Homo sapiens; CAKI-1; single dose 10^−5 M; read-out: Growth inhibition (%)
[40] = test system: RXF 393; assay: NCI-60 SRB screen; format: cell-based, human; details: Homo sapiens; RXF 393; single dose 10^−5 M; read-out: Growth inhibition (%)
[41] = test system: SN12C; assay: NCI-60 SRB screen; format: cell-based, human; details: Homo sapiens, SN12C; SN 12 C; single dose 10^−5 M; read-out: Growth inhibition (%)
[42] = test system: TK-10; assay: NCI-60 SRB screen; format: cell-based, human; details: Homo sapiens; TK-10; single dose 10^−5 M; read-out: Growth inhibition (%)
[43] = test system: UO-31; assay: NCI-60 SRB screen; format: cell-based, human; details: Homo sapiens; UO-31; single dose 10^−5 M; read-out: Growth inhibition (%)
[44] = test system: panel of 60 cancer cell lines; assay: NCI-60 SRB screen, mean or range over the panel; format: cell-based, human; details: Homo sapiens; mean over the cell lines; single dose 10^−5 M; read-out: Mean growth inhibition (%)

O=C1NC(c2cccc([N+](=O)[O-])c2)c2sc3c(F)cccc3c2C1N1CCCCC1 (centres unmarked) [Compound 6c, 8-Fluoro-1-(3-nitrophenyl)-4-(piperidin-1-yl)-1,2-dihydro[1]benzothieno [2,3-c]pyridin-3(4H)-one]
inhibition at 10 µM [1]: 1.84%
inhibition at 10 µM [2]: -17%
inhibition at 10 µM [3]: 6.11%
inhibition at 10 µM [4]: 8.91%
inhibition at 10 µM [5]: 0.3%
inhibition at 10 µM [6]: -0.32%
inhibition at 10 µM [7]: 5.86%
inhibition at 10 µM [8]: 11.5%
inhibition at 10 µM [9]: 14.1%
inhibition at 10 µM [10]: 8.71%
inhibition at 10 µM [11]: 5.16%
inhibition at 10 µM [12]: 2.6%
inhibition at 10 µM [13]: -0.58%
inhibition at 10 µM [14]: 14%
inhibition at 10 µM [15]: -12.7%
inhibition at 10 µM [16]: 20.6%
inhibition at 10 µM [17]: 3.74%
inhibition at 10 µM [18]: 9%
inhibition at 10 µM [19]: 2.91%
inhibition at 10 µM [20]: 7.46%
inhibition at 10 µM [21]: 2.64%
inhibition at 10 µM [22]: 2.28%
inhibition at 10 µM [23]: -1.85%
inhibition at 10 µM [24]: 1.9%
inhibition at 10 µM [25]: -8.63%
inhibition at 10 µM [26]: -8.06%
inhibition at 10 µM [27]: -12.4%
inhibition at 10 µM [28]: 1.15%
inhibition at 10 µM [29]: -6.77%
inhibition at 10 µM [30]: 4.85%
inhibition at 10 µM [31]: 20.7%
inhibition at 10 µM [32]: -2.74%
inhibition at 10 µM [33]: -4.39%
inhibition at 10 µM [34]: 5%
inhibition at 10 µM [35]: -1.66%
inhibition at 10 µM [36]: -0.84%
inhibition at 10 µM [37]: -6.36%
inhibition at 10 µM [38]: 9.32%
inhibition at 10 µM [39]: 17.6%
inhibition at 10 µM [40]: 6.16%
inhibition at 10 µM [41]: 2.45%
inhibition at 10 µM [42]: -42.2%
inhibition at 10 µM [43]: 32.2%
inhibition at 10 µM [44]: 2.54%
